Earlier results as cited in patent publication US8623825B2, “Edible fat composition for enhancing bone strength” (Enzymotec Ltd., priority 2007, dated 2014).

Tests used:
[1] = test system: bone of post-menopausal women
vertebral bone = conditions: independent of bone mineral density

Row | SMILES | Bone mass ([1]; fluoride treatment) | Skeletal fragility ([1]; particularly non-vertebral bones) | Vertebral bone strength (vertebral bone)
1 | F [fluoride] | increased bone mass | increased skeletal fragility | –
2 | O=C(c1ccc(OCCN2CCCCC2)cc1)c1c(-c2ccc(O)cc2)sc2cc(O)ccc12 [raloxifene] | – | – | significantly improved
